In patent US20200289474A1, “METHODS OF TREATING PAIN WITH A THIAZOLINE ANTI-HYPERALGESIC” (priority 2019, published 2020):

How the values were obtained:
lactoperoxidase = lactoperoxidase oxidation (mediated by peroxide); format: biochemical; conditions: physiological conditions (neutral pH)
[1] = dog single oral dose MTD study; format: in vivo; conditions: for Average Compound 1 Concentration in Dog Plasma: N = 2
Description: Using a pyramiding dose schedule, dose levels of 250, 350 and 500 mg/kg were administered to 2 dogs/sex (after a washout period of at least three days, the same animals were dosed with the next dose level). The dose volume was 10 mL/kg body weight. The vehicle was 0.5% aqueous HPMC.

[2] = stability in plasma from a variety of species; format: in vitro ADME
allodynia = assay: methylglyoxal-induced diabetic neuropathy model; format: in vivo; conditions: rat
[3] = rat pharmacokinetics after single PO dose; format: in vivo; conditions: for Compound 1 Concentration in Rat Plasma / Compound 1 Concentration in Rat Plasma, Average / mean Cmax / t1/2: 100 mg/kg single PO; for Compound 1 Concentration in Rat Plasma: individual animals
Description: In both assays, a deuterated (Compound 1-d4) internal standard was used.
The objective of this non-GLP study was to determine the pharmacokinetics of Compound 1 after a single oral (gavage) dose in rats, and to determine if Compound 1 undergoes epimerization in the rat. Compound 1 was administered to CD® IGS [Crl:CD(SD)] (Sprague Dawley) rats (5/sex/group) as a single oral gavage dose of 100 mg/kg in a vehicle of 0.5% aqueous HPMC. Rats were dosed at a dose volume of 10 mL/kg body weight.

[4] = rat 28-day GLP repeat dose PO study (toxicokinetics); format: in vivo
Description: A 28-day GLP repeat dose study with Compound 1 in rats was conducted with oral gavage doses of 0, 500, 1000 or 2000 mg/kg/day at a dosing volume of 10 mL/kg. The vehicle was 0.5% HPMC. There were 15 rats/sex in the control and high dose groups (5/sex for a 14-day recovery period) while the low and mid doses consisted of 10 rats/sex. Satellite groups of rats/sex/group for toxicokinetics were included.
Rats in Group 1 (Vehicle Control) were bled once at approximately 1 hour post-dose on those days.

peroxynitrite (PN) = assay: chemical-based assays of peroxynitrite (PN) oxidation; format: biochemical; conditions: chemical-based assay
[5] = rat 7-day repeat dose PO study (toxicokinetics)
HEK293 cells = assay: cytotoxicity by lactate dehydrogenase (LDH) release; format: cell-based
[6] = female, rat, in vivo, po, 500 mg/kg
[7] = rat 28-day PO, Day 1, F, 1000 mg/kg
[8] = rat 28-day PO, Day 1, F, 2000 mg/kg
[9] = rat 28-day PO, Day 1, M, 500 mg/kg
[10] = rat 28-day PO, Day 1, M, 1000 mg/kg
[11] = rat 28-day PO, Day 1, M, 2000 mg/kg
[12] = rat 28-day PO, Day 14, F, 500 mg/kg
[13] = rat 28-day PO, Day 14, F, 1000 mg/kg
[14] = rat 28-day PO, Day 14, F, 2000 mg/kg
[15] = rat 28-day PO, Day 14, M, 500 mg/kg
[16] = rat 28-day PO, Day 14, M, 1000 mg/kg
[17] = rat 28-day PO, Day 14, M, 2000 mg/kg
[18] = rat 28-day PO, Day 28, F, 500 mg/kg
[19] = rat 28-day PO, Day 28, F, 1000 mg/kg
[20] = rat 28-day PO, Day 28, F, 2000 mg/kg
[21] = rat 28-day PO, Day 28, M, 500 mg/kg
[22] = rat 28-day PO, Day 28, M, 1000 mg/kg
[23] = rat 28-day PO, Day 28, M, 2000 mg/kg

CC1(C)SC(Nc2ccccc2O)=N[C@@H]1C(=O)O.Cl [Compound 1, (R)-2-(2-hydroxyphenylamino)-5,5-dimethyl-4,5-dihydrothiazole-4-carboxylic acid mono-hydrochloride]
removal of peroxynitrite in lactoperoxidase oxidation (lactoperoxidase): catalytically remove peroxynitrite | Average Compound 1 Concentration in Dog Plasma ([1]; 250 mg/kg PO (Dose 1; Day 1), 0.5 h, F): 28 µg/mL | Average Compound 1 Concentration in Dog Plasma ([1]; 250 mg/kg PO (Dose 1; Day 1), 0.5 h, M): 71 µg/mL | Average Compound 1 Concentration in Dog Plasma ([1]; 250 mg/kg PO (Dose 1; Day 1), 1 h, F): 54 µg/mL | Average Compound 1 Concentration in Dog Plasma ([1]; 250 mg/kg PO (Dose 1; Day 1), 1 h, M): 110 µg/mL | Average Compound 1 Concentration in Dog Plasma ([1]; 250 mg/kg PO (Dose 1; Day 1), 2 h, F): 46 µg/mL | Average Compound 1 Concentration in Dog Plasma ([1]; 250 mg/kg PO (Dose 1; Day 1), 2 h, M): 91 µg/mL | Average Compound 1 Concentration in Dog Plasma ([1]; 350 mg/kg PO (Dose 3; Day 9), 0.5 h, F): 67 µg/mL | Average Compound 1 Concentration in Dog Plasma ([1]; 350 mg/kg PO (Dose 3; Day 9), 0.5 h, M): 134 µg/mL | Average Compound 1 Concentration in Dog Plasma ([1]; 350 mg/kg PO (Dose 3; Day 9), 1 h, F): 154 µg/mL | Average Compound 1 Concentration in Dog Plasma ([1]; 350 mg/kg PO (Dose 3; Day 9), 1 h, M): 220 µg/mL | Average Compound 1 Concentration in Dog Plasma ([1]; 350 mg/kg PO (Dose 3; Day 9), 2 h, F): 119 µg/mL | Average Compound 1 Concentration in Dog Plasma ([1]; 350 mg/kg PO (Dose 3; Day 9), 2 h, M): 153 µg/mL | Average Compound 1 Concentration in Dog Plasma ([1]; 500 mg/kg PO (Dose 2; Day 4), 0.5 h, F): 87 µg/mL | Average Compound 1 Concentration in Dog Plasma ([1]; 500 mg/kg PO (Dose 2; Day 4), 0.5 h, M): 111 µg/mL | Average Compound 1 Concentration in Dog Plasma ([1]; 500 mg/kg PO (Dose 2; Day 4), 1 h, F): 136 µg/mL | Average Compound 1 Concentration in Dog Plasma ([1]; 500 mg/kg PO (Dose 2; Day 4), 1 h, M): 191 µg/mL | Average Compound 1 Concentration in Dog Plasma ([1]; 500 mg/kg PO (Dose 2; Day 4), 2 h, F): 124 µg/mL | Average Compound 1 Concentration in Dog Plasma ([1]; 500 mg/kg PO (Dose 2; Day 4), 2 h, M): 193 µg/mL | tolerability ([1]; dogs, single oral (gavage) dose of 500 mg/kg, emesis in three of the four dosed animals): not tolerated | stability in plasma [2]: stable | effect on allodynia, methylglyoxal-induced diabetic neuropathy (allodynia): alleviates allodynia | Compound 1 Concentration in Rat Plasma ([3]; Female, 0.5 h post-dose, mono-hydrochloride, 100 mg/kg): 34.3 µg/mL | Compound 1 Concentration in Rat Plasma, Average ([3]; Female, 1 h post-dose): 60.1 µg/mL | Compound 1 Concentration in Rat Plasma ([3]; Female, 1 h post-dose, mono-hydrochloride, 100 mg/kg): 53.9 µg/mL | Compound 1 Concentration in Rat Plasma, Average ([3]; Female, 4 h post-dose): 22.6 µg/mL | Compound 1 Concentration in Rat Plasma ([3]; Male, 0.5 h post-dose, mono-hydrochloride, 100 mg/kg): 13.8 µg/mL | Compound 1 Concentration in Rat Plasma, Average ([3]; Male, 1 h post-dose): 14.9 µg/mL | Compound 1 Concentration in Rat Plasma, Average ([3]; Male, 2 h post-dose): 14.3 µg/mL | Compound 1 Concentration in Rat Plasma ([3]; Male, 2 h post-dose, mono-hydrochloride, 100 mg/kg): 16.3 µg/mL | Compound 1 Concentration in Rat Plasma ([3]; Male, 8 h post-dose, mono-hydrochloride, 100 mg/kg): 1.61 µg/mL | Compound 1 Concentration in Rat Plasma ([3]; Male, 24 h post-dose): BQL | mean Cmax ([3]; females): 60 µg/mL | t1/2 ([3]; females): 4 h | mean Cmax ([3]; males): 15 µg/mL | t1/2 ([3]; males): 7 h | epimerization in vivo (chiral column) ([3]; rat plasma): did not provide any evidence of epimerization | Cmax at 28 days ([4]; both sexes, in vivo, po, rat 28-day pivotal study, at some doses): > 100 µg/mL | Tmax at 28 days ([4]; both sexes, in vivo, po, rat 28-day study (summary)): ≤ 1 h | CL/F at 28 days ([4]; both sexes, in vivo, rat 28-day PO, read-out: overall mean CL/F (converted)): 35.2 mL/min/kg | half-life at 28 days ([4]; both sexes, in vivo, rat 28-day PO, read-out: overall mean t1/2 (converted)): 4.24 h | half-life ([4]; both sexes, rat, in vivo, po): 3 to 8 h | overall mean V/F ([4]; both, rat, in vivo, po, 28 days): 12.5 L/kg | AUC [4, 6]: 298 µg·h/mL | AUC(0-inf) [4, 6]: 299 µg·h/mL | CL/F [4, 6]: 27.8 mL/min/kg | Cmax [4, 6]: 74.8 µg/mL | Vd/F [4, 6]: 8.1 L/kg | half-life [4, 6]: 3.36 h | tmax [4, 6]: 2 h | half-life ([4]; female, rat, in vivo, po, 2000 mg/kg): 8.05 h | CL/F ([4]; male, rat, in vivo, po, 1000 mg/kg): 38.7 mL/min/kg | CL/F ([4]; male, rat, in vivo, po, 2000 mg/kg): 35.3 mL/min/kg | AUCINF [4, 7]: 794 µg·h/mL | AUCTAU [4, 7]: 788 µg·h/mL | CL/F (CLz/F) [4, 7]: 21 mL/min/kg | Cmax [4, 7]: 108 µg/mL | t1/2 [4, 7]: 3.39 h | AUCINF [4, 8]: 1324 µg·h/mL | AUCTAU [4, 8]: 1161 µg·h/mL | CL/F (CLz/F) [4, 8]: 25.2 mL/min/kg | Cmax [4, 8]: 118 µg/mL | AUCINF [4, 9]: 275 µg·h/mL | AUCTAU [4, 9]: 270 µg·h/mL | CL/F (CLz/F) [4, 9]: 30.3 mL/min/kg | Cmax [4, 9]: 55.1 µg/mL | t1/2 [4, 9]: 4.18 h | AUCINF [4, 10]: 460 µg·h/mL | AUCTAU [4, 10]: 456 µg·h/mL | CL/F (CLz/F) [4, 10]: 36.2 mL/min/kg | Cmax [4, 10]: 52.7 µg/mL | t1/2 [4, 10]: 3.46 h | AUCINF [4, 11]: 771 µg·h/mL | AUCTAU [4, 11]: 768 µg·h/mL | CL/F (CLz/F) [4, 11]: 43.2 mL/min/kg | Cmax [4, 11]: 83.1 µg/mL | t1/2 [4, 11]: 2.81 h | AUCINF [4, 12]: 225 µg·h/mL | AUCTAU [4, 12]: 223 µg·h/mL | CL/F (CLss/F) [4, 12]: 37.5 mL/min/kg | Cmax [4, 12]: 75.0 µg/mL | t1/2 [4, 12]: 4.20 h | AUCINF [4, 13]: 437 µg·h/mL | AUCTAU [4, 13]: 430 µg·h/mL | CL/F (CLss/F) [4, 13]: 38.7 mL/min/kg | Cmax [4, 13]: 96.3 µg/mL | t1/2 [4, 13]: 4.19 h | AUCINF [4, 14]: 952 µg·h/mL | AUCTAU [4, 14]: 942 µg·h/mL | CL/F (CLss/F) [4, 14]: 35.3 mL/min/kg | Cmax [4, 14]: 127 µg/mL | t1/2 [4, 14]: 3.56 h | AUCINF [4, 15]: 258 µg·h/mL | AUCTAU [4, 15]: 244 µg·h/mL | CL/F (CLss/F) [4, 15]: 34.2 mL/min/kg | Cmax [4, 15]: 45.8 µg/mL | t1/2 [4, 15]: 6.27 h | AUCINF [4, 16]: 296 µg·h/mL | AUCTAU [4, 16]: 293 µg·h/mL | Cmax [4, 16]: 51.9 µg/mL | t1/2 [4, 16]: 3.68 h | AUCINF [4, 17]: 709 µg·h/mL | AUCTAU [4, 17]: 701 µg·h/mL | Cmax [4, 17]: 75.6 µg/mL | t1/2 [4, 17]: 3.66 h | AUCINF [4, 18]: 303 µg·h/mL | AUCTAU [4, 18]: 297 µg·h/mL | CL/F (CLss/F) [4, 18]: 28 mL/min/kg | Cmax [4, 18]: 86.4 µg/mL | t1/2 [4, 18]: 4.62 h | tmax [4, 18]: 0.5 h | AUCINF [4, 19]: 741 µg·h/mL | AUCTAU [4, 19]: 736 µg·h/mL | CL/F (CLss/F) [4, 19]: 22.7 mL/min/kg | Cmax [4, 19]: 128 µg/mL | t1/2 [4, 19]: 3.20 h | AUCINF [4, 20]: 1327 µg·h/mL | AUCTAU [4, 20]: 1305 µg·h/mL | CL/F (CLss/F) [4, 20]: 25.5 mL/min/kg | Cmax [4, 20]: 139 µg/mL | t1/2 [4, 20]: 3.93 h | tmax [4, 20]: 0.5 h | AUCINF [4, 21]: 333 µg·h/mL | AUCTAU [4, 21]: 305 µg·h/mL | CL/F (CLss/F) [4, 21]: 27.3 mL/min/kg | Cmax [4, 21]: 48.6 µg/mL | t1/2 [4, 21]: 6.90 h | AUCINF [4, 22]: 337 µg·h/mL | AUCTAU [4, 22]: 334 µg·h/mL | CL/F (CLss/F) [4, 22]: 49.8 mL/min/kg | Cmax [4, 22]: 47.9 µg/mL | t1/2 [4, 22]: 3.31 h | AUCINF [4, 23]: 731 µg·h/mL | AUCTAU [4, 23]: 724 µg·h/mL | CL/F (CLss/F) [4, 23]: 46 mL/min/kg | Cmax [4, 23]: 83.6 µg/mL | t1/2 [4, 23]: 3.53 h | PN-mediated oxidation of small-molecule organic substrates such as luminol (peroxynitrite (PN)): inhibits PN-mediated oxidation | MTD ([5]; female rats, oral gavage, 7 days): 2000 mg/kg | Cmax ([5]; rat 7 Day PO, 2000 mg/kg, Seventh Daily Dose, mean): 119 µg/mL | cytotoxicity (LDH release) (HEK293 cells): less than 25%
